Assays:
[1] = Stability test 3 (abrasion test); type: physicochemical; conditions: uncoated; storage 40° C., 75% RH, 3 months
Protocol: In order to evaluate a stability in the case where a physical impact was applied to the solid bleaching agent-containing materials having a coating layer prepared in Examples 1, 25, 28, 31, 35, 36, 37, 38, and 39, an abrasion test was carried out by using a tablet abrasion tester (manufactured by Toyama Sangyo Co., Ltd.). This tablet abrasion tester is composed of a plastic drum container having an inner diameter of about 286 mm and a depth of about 38 mm, and an electric part rotating the drum container in a vertical direction. Inside the drum container, a partition plate is provided so that a test sample in the container is lifted up to about 157 mm in height and falls each time when the drum container makes one rotation. Such a tablet abrasion tester is readily available. […]
The case where the effective chlorine retention rate was less than 5% was evaluated as failed which is denoted by B because an effect of improving stability was hardly recognized. The case where the effective chlorine retention rate was 5% or more and less than 10% was evaluated as pass which is denoted by A, because an effect of improving stability was recognized. The case where the effective chlorine retention rate was 10% or more was evaluated as particularly excellent among passes, which is denoted by S. The results were as shown in Table 27.

[2] = Stability test 2 (long-term storage test); type: physicochemical; conditions: in pasty detergent composition
Protocol: In a stainless steel beaker were charged 5 g of distilled water and 3 g of potassium carbonate, and the potassium carbonate was dissolved. […] . The pasty detergent composition heated to 60° C. was accurately weighed within a range of from 2.5 to 3.5 g, a mass thereof was recorded up to 3 decimal places, and added so as to be superimposed on the solid bleaching agent-containing material or sodium dichloroisocyanurate, to thereby prepare detergent compositions containing the solid bleaching agent-containing material or the solid bleaching agent. […] One month later, the entire amount of the detergent composition containing the solid bleaching agent-containing material or the solid bleaching agent in the cup was dissolved in about 100 ml of distilled water, and the effective chlorine retention rate was evaluated from the effective chlorine content in the same manner as in the case of the stability test 1.
. […] The case where the effective chlorine retention rate was less than 5% was evaluated as failed which is denoted by B, because an effect of improving stability was hardly recognized. The case where the effective chlorine retention rate was 5% or more was evaluated as pass which is denoted by A, because an effect of improving stability was recognized. […]

[3] = Stability test 1 (storage test), effective chlorine retention rate
Protocol: In the case where the solid bleaching agent is a chlorine bleaching agent, an effective chlorine content (in terms of Cl2) in the solid bleaching agent-containing material can be calculated by Expression 3 by using an iodine titration method. That is, iodine which is liberated by the reaction of active chlorine and potassium iodide is titrated with sodium thiosulfate solution, and the effective chlorine content is calculated by the following Expression 3.
(§1) A stability of the solid bleaching agent-containing material having a coating layer thus obtained can be evaluated on the basis of how much an effective chlorine retention rate or effective oxygen retention rate after a storage test under certain conditions is improved before and after coating. The effective chlorine retention rate (%) is defined by the following Expression 9. […] Similarly, in the case where the solid bleaching agent is an oxygen bleaching agent, the stability of the solid bleaching agent is defined by the effective oxygen retention rate (%). […] Effective chlorine or effective oxygen retention rate (%)=R1×100/R2 (Expression 9)
Distilled water was added thereto to be about 100 ml, and about 1 g potassium iodide and about 5 ml of a 50% by mass acetic acid aqueous solution were further added and stirred for about 5 minutes. The liberated iodine was titrated with a 0.1 N sodium thiosulfate aqueous solution. After a yellow color of the solution became thin, approximately 1 ml of an aqueous solution of starch (10 g/L) was added as an indicator and the titration was continued until a blue color of the generated iodine-starch disappeared. The effective chlorine content (%) was determined from the titration amount of the sodium thiosulfate aqueous solution.
(§2) At this time, room temperature was 20° C. and relative humidity was 40%.

[4] = Stability test 1 (storage test), effective oxygen retention rate; conditions: uncoated solid bleaching agent (before coating)
Protocol: Even in the case of the oxygen solid bleaching agent, an effective oxygen content (in terms of O2) in the solid bleaching agent-containing material can be calculated by using an iodine titration method. That is, iodine which is liberated by the reaction of active oxygen and potassium iodide is titrated with a sodium thiosulfate solution, and the effective oxygen content is calculated by Expression 4. In order to accelerate the reaction between active oxygen and potassium iodide, a small amount of ammonium molybdate aqueous solution adjusted to 1% by mass may be added. […] Effective oxygen content (%)=a×f×0.08000/b (Expression 4)
as §1, §2

[5] = per 100 g of water; cited from earlier work
[6] = uncoated solid bleaching agent (before coating)

| SMILES | Stability test 3: before coating, effective chlorine retention rate (%) [1] | Stability test 2: effective chlorine retention rate ([2]; 1 month, 40° C., 75% RH) | Stability test 2: before coating, effective chlorine retention rate (%) ([2]; uncoated, after 1 month) | Stability test 1: before coating, effective chlorine retention rate (%) [3, 6] | Stability test 1: before coating, effective chlorine retention rate (%) ([3]; unprocessed solid bleaching agent mixed with detergent components and 3 ml tap water at 60° C., 18 hours at room temperature) | Stability test 1: before coating, effective oxygen retention rate (%) [4] | solubility with respect to water of 100 g [5] |
| --- | --- | --- | --- | --- | --- | --- | --- |
| O=c1nc([O-])n(Cl)c(=O)n1Cl.[Na+] [Sodium dichloroisocyanurate] | 0% | 0% | 0% | 12% | 12% |  |  |
| O=C([O-])[O-].O=C([O-])[O-].OO.OO.OO.[Na+].[Na+].[Na+].[Na+] [Sodium percarbonate] |  |  |  |  |  | 25% |  |
| O=c1n(Cl)c(=O)n(Cl)c(=O)n1Cl [trichloroisocyanuric acid, Trichloroisocyanuric acid] |  |  |  | 30% |  |  | 1.2 g |
